Experimental findings from ChEMBL document CHEMBL1201862, “PubChem BioAssay data set” (2004) are described below.

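All cell lines were grown in 96-well plates and treated with compound for 48 hours. GI50 marks 50% less growth.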 Active and inactive are the calls of the source. Rule as the data show it: active = GI50 up to about 1.1 µM and inactive = higher. Some results are limits rather than exact numbers.

Test systems include A549; EKVX; HCT-15; HL-60; HT-29; IGROV-1; KM12; MDA-MB-231; MDA-N; NCI-H226; NCI-H522; OVCAR-3; OVCAR-4; RPMI-8226; SF-295; SK-MEL-28; SR; TK-10; U-251; UACC-62.
Assay in all cases: inhibition of tumour cell growth, NCI panel, 48 h

Regarding `O=C(O)c1nn(-c2ccc(Cl)cc2)c2c1C(=O)c1ccccc1C2=O`, the GI50 with A549 was > 100 µM (inactive); with EKVX, > 100 µM (inactive); with HCT-15, over 100 µM; with HL-60, > 100 µM (inactive); with HT-29, > 100 µM (inactive); in the assay with IGROV-1 it was > 100 µM (inactive). Also, the GI50 is > 100 µM (inactive) in the assay with KM12; 41.3 µM (inactive) in the assay on MDA-MB-231; > 100 µM (inactive) with MDA-N; > 100 µM (inactive) in the assay on NCI-H226; > 100 µM (inactive) with NCI-H522; 24.7 µM (inactive) with OVCAR-3. The GI50 is > 100 µM (inactive) in the assay on OVCAR-4; > 100 µM (inactive) in the assay with RPMI-8226; > 100 µM (inactive) in the assay with SF-295; > 100 µM (inactive) in the assay with SK-MEL-28; 21.2 µM (inactive) in the assay on SR; > 100 µM (inactive) in the assay with TK-10. Further, the values for the GI50 with U-251 and in the assay with UACC-62 were 55.7 µM (inactive) and > 100 µM (inactive), respectively.
As for `O=P(O)(CCP(=O)(O)c1ccccc1)c1ccccc1`, the GI50 in the assay with A549 was > 100 µM (inactive); in the assay on EKVX, > 100 µM (inactive); in the assay with HCT-15, over 100 µM; in the assay with HL-60 it was > 100 µM (inactive); with HT-29 it was > 100 µM (inactive); in the assay with IGROV-1, > 100 µM (inactive). Besides, the GI50 in the assay with KM12, in the assay with MDA-MB-231, with MDA-N, with NCI-H226, in the assay with NCI-H522 and in the assay on OVCAR-3 was > 100 µM (inactive) each time. Also, the GI50 in the assay with OVCAR-4, in the assay on RPMI-8226, with SF-295, in the assay with SK-MEL-28, in the assay on SR and in the assay on TK-10 was > 100 µM (inactive) throughout. Moreover, the GI50 in the assay on U-251 and in the assay with UACC-62 was > 100 µM (inactive) each time.
`CN(C)CCC(=O)[C@@]1(O)CC[C@H]2[C@@H]3CC=C4C[C@@H](O)CC[C@]4(C)[C@H]3CC[C@@]21C`: the GI50 in the assay with A549 is 37.1 µM (inactive); in the assay on EKVX it was 20.7 µM (inactive); with HCT-15, 20.1 µM; with HL-60, 17.4 µM (inactive); in the assay with HT-29 it was 18.9 µM (inactive); with IGROV-1 it was 17.8 µM (inactive). Moreover, the GI50 in the assay on KM12 is 15.1 µM (inactive); with MDA-MB-231, 18.5 µM (inactive); with MDA-N, 17.7 µM (inactive); with NCI-H226 it was 62.8 µM (inactive); in the assay with NCI-H522, 11.9 µM (inactive); with OVCAR-3, 9.02 µM (inactive). Moreover, the GI50 was 33.4 µM (inactive) with OVCAR-4; 1.58 µM (inactive) in the assay with RPMI-8226; 24.9 µM (inactive) in the assay with SF-295; 17.2 µM (inactive) in the assay on SK-MEL-28; 12.6 µM (inactive) with SR; 2.1 µM (inactive) in the assay with TK-10. In addition, the values for the GI50 with U-251 and with UACC-62 were 17.3 µM (inactive) and 16.7 µM (inactive), respectively.
With `COc1ccc(-c2cc(-c3ccccc3)nc(/N=C\c3ccccc3)n2)c(O)c1`, the GI50 was 26.4 µM (inactive) with A549; > 26.4 µM (inactive) in the assay on EKVX; 5.37 µM in the assay with HCT-15; 2.71 µM (inactive) in the assay with HL-60; > 27.9 µM (inactive) in the assay with HT-29; 11.5 µM (inactive) in the assay with IGROV-1. Further, the GI50 in the assay with KM12 is 5.9 µM (inactive); in the assay with MDA-MB-231, > 31.3 µM (inactive); with MDA-N, 5.02 µM (inactive); in the assay on NCI-H226, > 100 µM (inactive); with NCI-H522, 3.33 µM (inactive); in the assay on OVCAR-3 it was > 52.2 µM (inactive). The GI50 with OVCAR-4 is > 41.9 µM (inactive); with RPMI-8226, 2.14 µM (inactive); in the assay on SF-295 it was 97.7 µM (inactive); in the assay on SK-MEL-28 it was > 100 µM (inactive); in the assay with SR, 3.68 µM (inactive); in the assay with TK-10 it was > 100 µM (inactive). Besides, the results for the GI50 in the assay with U-251 and with UACC-62 were 10.3 µM (inactive) and > 27.7 µM (inactive), respectively.
For `COC(=S)OC1CC(n2cnc3c(=O)[nH]cnc32)OC1CO[Si](C)(C)C(C)(C)C` (stereo not given), the GI50 in the assay with A549 is > 100 µM (inactive); in the assay with EKVX it was > 100 µM (inactive); in the assay with HCT-15, over 100 µM; with HL-60, > 100 µM (inactive); in the assay with HT-29, > 100 µM (inactive); in the assay on IGROV-1, > 100 µM (inactive). Besides, the GI50 in the assay on KM12, in the assay with MDA-MB-231, in the assay on MDA-N, in the assay on NCI-H226, with NCI-H522 and in the assay with OVCAR-3 was > 100 µM (inactive) each time. For the same molecule, the GI50 with OVCAR-4, in the assay with RPMI-8226, with SF-295, in the assay with SK-MEL-28, with SR and in the assay on TK-10 was > 100 µM (inactive) throughout. Moreover, the GI50 in the assay with U-251 and with UACC-62 was > 100 µM (inactive) in each case.
Regarding `CNC(=O)NCCN1CC2CCC(CC2)C1`, the GI50 is > 10 µM (inactive) in the assay with A549; > 10 µM (inactive) in the assay on EKVX; over 10 µM in the assay on HCT-15; > 10 µM (inactive) with HL-60; > 10 µM (inactive) with HT-29; > 10 µM (inactive) in the assay with IGROV-1. Moreover, the GI50 in the assay with KM12, in the assay with MDA-MB-231, in the assay with MDA-N, in the assay with NCI-H226, with NCI-H522 and in the assay with OVCAR-3 was > 10 µM (inactive) in each case. In addition, the GI50 in the assay on OVCAR-4, in the assay on RPMI-8226, in the assay on SF-295, in the assay with SK-MEL-28, in the assay with SR and in the assay with TK-10 was > 10 µM (inactive) in each case. In addition, the GI50 in the assay on U-251 and in the assay on UACC-62 was > 10 µM (inactive) throughout.
For the molecule `CC(Oc1ccccc1Cl)C(=O)NN1C(=O)CC(=O)NC1=S` (stereo not given), the GI50 in the assay on A549 is > 100 µM (inactive); in the assay with EKVX, > 100 µM (inactive); in the assay with HCT-15, over 100 µM; with HL-60 it was 9.23 µM (inactive); in the assay with HT-29, > 100 µM (inactive); in the assay with IGROV-1, > 100 µM (inactive). The GI50 is 83.8 µM (inactive) with KM12; > 100 µM (inactive) with MDA-MB-231; > 100 µM (inactive) in the assay on MDA-N; > 100 µM (inactive) in the assay on NCI-H226; > 100 µM (inactive) in the assay with NCI-H522; > 100 µM (inactive) in the assay with OVCAR-3. The GI50 is > 100 µM (inactive) in the assay with OVCAR-4; 98.9 µM (inactive) in the assay with RPMI-8226; 89.5 µM (inactive) with SF-295; > 100 µM (inactive) in the assay on SK-MEL-28; > 100 µM (inactive) in the assay on SR; > 100 µM (inactive) with TK-10. In addition, the GI50 with U-251 was > 100 µM (inactive); in the assay on UACC-62, 46.1 µM (inactive).
Take `CN(C)C(=O)Nc1cc2c3c(c1)CCCN3CCC2`: the GI50 in the assay on A549 is > 10 µM (inactive); in the assay on EKVX, > 10 µM (inactive); in the assay with HCT-15, over 10 µM; with HL-60, > 10 µM (inactive); in the assay on HT-29 it was > 10 µM (inactive); with IGROV-1, > 10 µM (inactive). In addition, the GI50 in the assay with KM12, with MDA-MB-231, with MDA-N, in the assay with NCI-H226, in the assay with NCI-H522 and in the assay on OVCAR-3 was > 10 µM (inactive) in each case. The GI50 in the assay on OVCAR-4, in the assay on RPMI-8226, in the assay with SF-295, in the assay on SK-MEL-28, in the assay with SR and in the assay on TK-10 was > 10 µM (inactive) each time. In addition, the GI50 in the assay on U-251 and in the assay with UACC-62 was > 10 µM (inactive) throughout.
On to `Cc1ncc([N+](=O)[O-])n1CCNCCCCn1ccnc1[N+](=O)[O-]`, for which the GI50 in the assay on A549 is > 100 µM (inactive); in the assay with EKVX, > 100 µM (inactive); with HCT-15 it was over 100 µM; with HL-60 it was > 100 µM (inactive); in the assay on HT-29, > 100 µM (inactive); in the assay with IGROV-1, > 100 µM (inactive). Further, the GI50 in the assay on KM12, in the assay on MDA-MB-231, in the assay with MDA-N, in the assay on NCI-H226, in the assay on NCI-H522 and in the assay on OVCAR-3 was > 100 µM (inactive) throughout. Further, the GI50 in the assay on OVCAR-4, in the assay on RPMI-8226, in the assay on SF-295, in the assay on SK-MEL-28, in the assay with SR and with TK-10 was > 100 µM (inactive) in each case. Further, the GI50 in the assay on U-251 and in the assay on UACC-62 was > 100 µM (inactive) throughout.
For `O=C1C(CN2CCCC2)CCC1CN1CCCC1` (stereo not given), the GI50 is > 100 µM (inactive) in the assay with A549; > 49.7 µM (inactive) in the assay with EKVX; 17.7 µM in the assay with HCT-15; 2.42 µM (inactive) in the assay on HL-60; 20 µM (inactive) with HT-29; 27.9 µM (inactive) with IGROV-1. For the same molecule, the GI50 was > 100 µM (inactive) with KM12; 13.5 µM (inactive) with MDA-MB-231; 16 µM (inactive) with MDA-N; > 48.2 µM (inactive) in the assay with NCI-H226; 1.9 µM (inactive) in the assay with NCI-H522; 17.1 µM (inactive) in the assay on OVCAR-3. Further, the GI50 with OVCAR-4 is 20.7 µM (inactive); in the assay with RPMI-8226, 3.59 µM (inactive); with SF-295, > 100 µM (inactive); with SK-MEL-28, 18.7 µM (inactive); in the assay with SR, 12.9 µM (inactive); in the assay on TK-10, 18.3 µM (inactive). Further, the GI50 in the assay on U-251 is > 100 µM (inactive); in the assay with UACC-62 it was 17.5 µM (inactive).
